Data: patent US20240042045A1, “NANOPARTICLES CONTAINING MULTIPLE CLEAVABLE PRODUGS FOR CANCER THERAPY” (The University of Chicago, priority 2020, published 2024)
Structures can show the parent of a compound that is named as a salt. Where two headings read alike, the source gives them in different places. Blank lines part the entries; values can stand above or below the compound they belong to.

Key:
[1] = Conversion of SN38-TMS to SN38 at pH 5.5 and 7.4; format: physicochemical; conditions: for SN38-TMS converted to SN38: pH=5.5, 37° C.
Description: SN38-TMS was incubated in acidic conditions mimicking endosomes at 37° C. At pH=5.5, 70% SN38-TMS was converted to SN38 in 24 h and 92% […] SN38-TMS was converted to SN38 in 48 h.

[2] = tested on: LDL; test: Binding kinetics to LDL in rat plasma at 37° C.; conditions: for binding to LDL: Chol-SN38 measured for Chol-SN38 and OxPt/SN38
[3] = tested on: apoptosis/necrosis; test: Apoptosis/necrosis analysis by flow cytometry (Annexin V / PI); format: cell-based; conditions: for percentage of apoptosis: flow cytometry
Description: Apoptosis/necrosis analysis was also performed on OxPt and/or SN38 treated cells by flow cytometry.

[4] = tested on: Panc02 cells; test: In vitro cytotoxicity in Panc02 cells (MTS assay); format: cell-based, murine
Description: (§1) The cell viability was measured by MTS assay.

[5] = tested on: KPC cells; test: In vitro cytotoxicity in KPC cells (MTS assay); format: cell-based, murine; conditions: 48 h
Description: as §1

[6] = cited from earlier work
[7] = tested on: CT26 cells; test: In vitro cytotoxicity in CT26 cells; format: cell-based, murine
Description: (§2) The cell viability was measured by […].

[8] = tested on: lipoproteins; test: Distribution in lipoproteins after incubation in rat plasma (NaBr gradient ultracentrifugation, LC-MS); conditions: 37° C., 3 h, Chol-SN38 measured for OxPt/SN38
Description: Lipoproteins were separated based on their densities by NaBr gradient ultracentrifugation.

[9] = tested on: MC38 cells; test: In vitro cytotoxicity in MC38 cells; format: cell-based, murine
Description: as §2

[10] = tested on: CT26 and MC38 cells
[11] = tested on: 4T1 cells; test: In vitro cytotoxicity in 4T1 cells (MTS assay); format: cell-based, murine; conditions: 48 h
[12] = tested on: H460 cells; test: In vitro cytotoxicity in H460 cells (MTS assay); format: cell-based, human
[13] = tested on: LL/2 lung cancer cells; test: Cytotoxicity of Chol-PTX; format: cell-based
[14] = tested on: LDL; test: Isothermal titration calorimetry (ITC) binding to LDL
Description: (§3) LDL is the key transporter of cholesterol and cholesterol esters to peripheral cells. It was hypothesized that LDL would strongly bind to Chol-SN38 to enhance its delivery to tumors via LDLR-mediated endocytosis.
Apparent LDL binding affinity of two control particles, OxPt NCP without chol and Chol-SN38 micelle (without the NCP core) was determined to understand which components of the particles bind to LDL.

[15] = tested on: CT26 and MC38 cells; test: In vitro cytotoxicity, values not assigned to one colon cancer cell line
[16] = molecular target: albumin (Homo sapiens, UniProt P02768); test: ITC binding to albumin
Description: as §3

[17] = Dynamic light scattering (DLS) of particles; format: physicochemical; conditions: DLS of OxPt/GEM-core nanoparticles made with the named Chol-disulfide prodrug
Description: Synthesis and characterization of OxPt/GEM/SN38 core-shell nanoparticle NCP particles with OxPt-bp and gemcitabine monophosphate (GMP) in the core and Chol-SN38 on the shell, referred to as “OxPt/GMP/SN38,” was synthesized in two steps. […] An aqueous solution of Zn(NO3)2 (60 mg, 600 mg/mL) was added to a 5 mL of 0.3M Triton X-100/1.5M 1-hexanol in cyclohexane and stirred vigorously for 5 min. The Zn(NO3)2-containing microemulsion was added dropwise to the OxPt-bp-containing microemulsion and stirred vigorously for 30 min at room temperature. After the addition of 10 mL ethanol, OxPt-bare was obtained by centrifugation at 11,628×g. The resulting pellet was washed twice with THF/ethanol and finally re-dispersed in THF. The loadings of OxPt in the particles were determined by ICP-MS (Agilent 7700x, Agilent Technologies, Santa Clara, California, United States of America) after digestion with nitric acid. The particle size and zeta potential were determined by dynamic light scattering using a Zetasizer (Nano ZS, Malvern, United Kingdom).

[18] = tested on: apoptosis/necrosis; test: Apoptosis/necrosis analysis of cells treated with Carb and/or DTX; format: cell-based; conditions: 10 μM Carb and/or DTX
Description: Apoptosis/necrosis analysis was also performed on cells treated with 10 μM Carb and/or DTX by flow cytometry.

[19] = tested on: CT26 and MC38 cells; test: cells; conditions: Mus musculus
[20] = Panc02 cells, 48 h, read-out: IC50
[21] = CT26 cells, 48 h, for OxPt/SN38 the OxPt IC50, read-out: IC50
[22] = MC38 cells, 48 h, for OxPt/SN38 the OxPt IC50, read-out: IC50

albumin, sequence (P02768 25-609, species assumed): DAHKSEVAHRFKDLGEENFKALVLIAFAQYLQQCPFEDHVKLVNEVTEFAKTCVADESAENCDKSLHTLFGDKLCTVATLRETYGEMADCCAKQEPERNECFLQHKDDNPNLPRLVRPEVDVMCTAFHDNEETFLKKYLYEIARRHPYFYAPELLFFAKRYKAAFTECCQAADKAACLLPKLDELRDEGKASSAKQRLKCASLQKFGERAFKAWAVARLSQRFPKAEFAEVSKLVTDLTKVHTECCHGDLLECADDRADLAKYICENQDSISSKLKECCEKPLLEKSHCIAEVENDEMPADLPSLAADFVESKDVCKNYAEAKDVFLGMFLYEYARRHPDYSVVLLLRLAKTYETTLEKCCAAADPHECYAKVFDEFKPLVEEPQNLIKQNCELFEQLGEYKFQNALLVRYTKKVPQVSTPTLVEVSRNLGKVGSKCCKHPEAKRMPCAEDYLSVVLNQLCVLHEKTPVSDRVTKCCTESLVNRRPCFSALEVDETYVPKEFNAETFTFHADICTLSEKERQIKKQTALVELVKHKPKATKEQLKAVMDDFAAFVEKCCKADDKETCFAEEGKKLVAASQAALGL

Compound: CCc1c2c(nc3ccc(O)cc13)-c1cc3c(c(=O)n1C2)COC(=O)[C@@]3(CC)O[Si](C)(C)C [SN38-TMS, 20-O-Trimethylsilyl SN38]
SN38 released from SN38-TMS ([1]; pH 7.4, 24 h): 26% | SN38 released from SN38-TMS ([1]; pH 7.4, 48 h): 63% | SN38-TMS converted to SN38 ([1]; 24 h): 70% | SN38-TMS converted to SN38 ([1]; 48 h): 92%

Compound: CCc1c2c(nc3ccc(O)cc13)-c1cc3c(c(=O)n1C2)COC(=O)[C@]3(O)CC [SN38]
binding to LDL [2]: 17.1±1.5% | early apoptotic Annexin V+/PI− cells [3]: 25.7±1.5% | percentage of apoptosis [3]: 34.8% | IC50 [4, 20]: 0.17 ± 0.12 µM | IC50 ([5]; KPC cells, read-out: IC50): 0.3 ± 0.09 µM | Log P [6]: 3.37 | IC50 [7, 21]: 0.22 ± 0.05 µM | distribution in HDL [8]: 14% | distribution in LDL fraction [8]: 17% | distribution in albumin fraction [8]: 69% | IC50 [9, 22]: 0.24 ± 0.08 µM | IC50 of SN38 ([10]; cell line not stated): 0.086 µg/mL

Compound: CCc1c2c(nc3ccc(O)cc13)-c1cc3c(c(=O)n1C2)COC(=O)C3(CC)OC(=O)OC(C)(C)C (stereo not shown) [SN38-Boc, 20-O-Boc-SN38]
cytotoxicity ([10]; concentrations up to 300 μM): no cytotoxicity

Compound: CC(C)CCC[C@@H](C)[C@H]1CC[C@H]2[C@@H]3CC=C4C[C@@H](O)CC[C@]4(C)[C@H]3CC[C@]12C [cholesterol]
Log P [6]: 7.02

Compound: CC(=O)O[C@@]12CO[C@@H]1C[C@H](O)[C@@]1(C)C(=O)[C@H](O)C3=C(C)[C@@H](OC(=O)[C@H](OC(=O)OCOC(=O)CCC(=O)O[C@H]4CC[C@@]5(C)C(=CC[C@H]6[C@@H]7CC[C@H]([C@H](C)CCCC(C)C)[C@@]7(C)CC[C@@H]65)C4)[C@@H](NC(=O)OC(C)(C)C)c4ccccc4)C[C@](O)([C@@H](OC(=O)c4ccccc4)[C@H]21)C3(C)C [Chol-DTX, Cholesterol-Docetaxel]
IC50 ([11]; Mus musculus): 15.3 µM | IC50 ([12]; Homo sapiens, NCI-H460, 48 h): 11.4 µM

Compound: CC(=O)O[C@H]1C(=O)[C@]2(C)[C@@H](OC(=O)OCOC(=O)CCC(=O)O[C@H]3CC[C@@]4(C)C(=CC[C@H]5[C@@H]6CC[C@H]([C@H](C)CCCC(C)C)[C@@]6(C)CC[C@@H]54)C3)C[C@H]3OC[C@@]3(OC(C)=O)[C@H]2[C@H](OC(=O)c2ccccc2)[C@]2(O)C[C@H](OC(=O)[C@H](O)[C@@H](NC(=O)c3ccccc3)c3ccccc3)C(C)=C1C2(C)C [Chol-PTX, Cholesterol-Paclitaxel]
IC50 [13]: 3.95 µM

Compound: gemcitabine monophosphate [GMP]
IC50 [4, 20]: 0.06 ± 0.02 µM | IC50 ([5]; KPC cells, read-out: IC50): 0.3 ± 0.07 µM

Compound: CCc1c2c(nc3ccc(OC(=O)OCOC(=O)CCC(=O)O[C@H]4CC[C@@]5(C)C(=CC[C@H]6[C@@H]7CC[C@H]([C@H](C)CCCC(C)C)[C@@]7(C)CC[C@@H]65)C4)cc13)-c1cc3c(c(=O)n1C2)COC(=O)[C@@]3(CC)O[Si](C)(C)C [Chol-SN38, 7-ethyl-10-(((((cholest-5-en-3-oxy)-4-oxobutanoyl)oxy)methoxy)-carbonyl)oxyl-20-O-trimethylsilyl camptothecin]
time to reach equilibrium binding to LDL [2]: ≤ 1 h | binding to LDL [2]: 74.5±3.6% | IC50 ([4]; Mus musculus, Panc02, 48 h): 14.6 ± 4.87 µM | Ka to LDL relative to binding affinity to albumin [14]: > 2000 times | binding constant (Ka) to LDL ([14]; ITC, apparent Ka for the particle): (4.97±0.24)×10^5 M^−1 | Binding affinity Ka ([14]; protein LDL): 49.7 ± 2.43 10^4 M^−1 | IC50 ([5]; Mus musculus): 3.18 ± 1.01 µM | IC50 ([7]; Mus musculus, CT26, 48 h, CT26 cells, 48 h, for OxPt/SN38 the OxPt IC50): 7.41 ± 1.03 µM | cytotoxicity relative to irinotecan [15]: 5-10 times | distribution in HDL [8]: 5% | distribution in LDL fraction [8]: 86% | distribution in VLDL [8]: 9% | Kd [16]: 4440 µM | IC50 ([9]; Mus musculus, MC-38, 48 h, MC38 cells, 48 h, for OxPt/SN38 the OxPt IC50): 10.2 ± 1.99 µM

Compound: CCc1c2c(nc3ccc(OC(=O)OC(C)(C)C)cc13)-c1cc3c(c(=O)n1C2)COC(=O)[C@@]3(CC)OC(=O)OCCSSCCOC(=O)O[C@H]1CC[C@@]2(C)C(=CC[C@H]3[C@@H]4CC[C@H]([C@H](C)CCCC(C)C)[C@@]4(C)CC[C@@H]32)C1 [Chol-SS-SN38-Boc]
PDI [17]: 0.211 | Z-Average (nm) [17]: 96.79 nm

Compound: N.N.O=C([O-])C1(C(=O)[O-])CCC1.[Pt+2] [Carb, carboplatin]
IC50 [11]: 0.91 µM | percentage of apoptosis [18]: 2.90% | IC50 ([12]; 48 h): 3.9 µM

Compound: CCc1c2c(nc3ccc(OC(=O)N4CCC(N5CCCCC5)CC4)cc13)-c1cc3c(c(=O)n1C2)COC(=O)[C@]3(O)CC [irinotecan hydrochloride]
Log P [6]: −0.45

Compound: CC[C@@]1(OC(=O)OCCSSCCOC(=O)O[C@H]2CC[C@@]3(C)C(=CC[C@H]4[C@@H]5CC[C@H]([C@H](C)CCCC(C)C)[C@@]5(C)CC[C@@H]43)C2)C(=O)OCc2c1cc1n(c2=O)Cc2cc3ccccc3nc2-1 [Chol-SS-CPT]
PDI [17]: 0.434 | Z-Average (nm) [17]: 263.2 nm

Compound: Nc1ccn([C@@H]2O[C@H](CO)[C@@H](O)C2(F)F)c(=O)n1 [GEM, gemcitabine]
IC50 ([4]; Mus musculus, Panc02 cells, 48 h, read-out: IC50): 0.11 ± 0.03 µM | IC50 ([5]; Mus musculus, KPC cells, read-out: IC50): 0.67 ± 0.18 µM

Compound: O=C1[O][Pt]2([NH][C@@H]3CCCC[C@H]3[NH]2)[O]C1=O [OxPt, oxaliplatin]
early apoptotic Annexin V+/PI− cells [3]: 8.0±0.6% | percentage of apoptosis [3]: 12.1% | IC50 [4, 20]: 14 ± 4.88 µM | IC50 ([5]; KPC cells, read-out: IC50): 5.94 ± 1.73 µM | IC50 [7, 21]: 9.11 ± 0.72 µM | IC50 [9, 22]: 11.4 ± 1.68 µM

IC50 [19]: ~80 µM
Compound: CCc1c2c(nc3ccc(OC(=O)N4CCC(N5CCCCC5)CC4)cc13)-c1cc3c(c(=O)n1C2)COC(=O)[C@]3(O)CC [Irinotecan, irinotecan]
IC50 ([7]; Mus musculus, CT26, 48 h, read-out: IC50): 79.4 ± 6.94 µM | IC50 ([9]; Mus musculus, MC-38, 48 h, read-out: IC50): 88.4 ± 7.48 µM

Compound: CC(=O)O[C@@]12CO[C@@H]1C[C@H](O)[C@@]1(C)C(=O)[C@H](O)C3=C(C)[C@@H](OC(=O)[C@H](O)[C@@H](NC(=O)OC(C)(C)C)c4ccccc4)C[C@@](O)([C@@H](OC(=O)c4ccccc4)[C@H]21)C3(C)C [DTX, docetaxel]
IC50 ([11]; Mus musculus): 4.7 µM | percentage of apoptosis [18]: 3.30% | IC50 ([12]; Homo sapiens, NCI-H460, 48 h): 3.69 µM

Compound: CCc1c2c(nc3ccc(OC(=O)OCCSSCCOC(=O)O[C@H]4CC[C@@]5(C)C(=CC[C@H]6[C@@H]7CC[C@H]([C@H](C)CCCC(C)C)[C@@]7(C)CC[C@@H]65)C4)cc13)-c1cc3c(c(=O)n1C2)COC(=O)[C@@]3(CC)O[Si](C)(C)C [Chol-SS-SN38]
PDI [17]: 0.38 | Z-Average (nm) [17]: 172.3 nm
